Source: patent US20030119070A1, “Reagents for cell selection and methods of use” (Nexell Therapeutics, Inc., priority 2000, published 2003)
Where “and” joins values, the source holds several entries; their conditions need not be identical. Equal entries are not always repeated. Each block holds one molecule with its values, some of them ahead of it. Ends that are not written are not given here.

Experiments:
[1] = system: anti-CD2 antibody B-E2; assay: FACS competition assay of peptides for binding of anti-CD2 antibody B-E2 to T cells; details: 1 mM peptide, 1×10^6 MNC, 15 min room temperature; FIG. 3
Procedure: Peptides having affinity for the CD2 monoclonal antibody B-E2 were isolated by phage display biopanning. Various peptides were tested as competitors for binding of T cells to the anti-CD2 antibody B-E2. A competition assay was performed using 1 mM of each peptide. The peptides were at 2×10^7 fold molar excess relative to the competitor CD2 antigen and at 6×10^6 fold molar excess relative to anti-CD2 antibody. Competition was measured using a FACS competition assay (see FIG. 3).
For the competition assay, 0.5 ml of a 1 mM solution of various peptides was added to 1×10^6 peripheral blood mononuclear cells (MNC) followed by the addition of 100 μl of 0.02 μg/ml of CD2 antibody (B-E2) and incubated for 15 min at room temperature. Cells were washed once in lysing reagent (155 mM ammonium chloride, 10 mM potassium bicarbonate, and 0.1 mM EDTA) and twice in 2 ml of PAH (DPBS, 1% human serum albumin, 0.02% NaN3). 1 μl of goat F(ab′)2 fragment anti-mouse IgG (heavy+light)-phycoerythrin conjugated (GAM-PE; Immunotech; Miami Fla.) was added to each sample and incubated for 10 min at room temperature. Cells were washed twice in 2 ml of PAH. The final cell pellet was resuspended in 0.25 ml of 0.5% paraformaldehyde. The samples were analyzed by flow cytometry.

[2] = system: SUP-T1 cells; assay: Flow cytometry of SUP-T1 cells sensitized with CD8-PR34+ conjugate, biotinylated 9C5 and streptavidin-PE, with or without free peptide; format: cell-based, human; details: SUP-T1 cells stained with conjugate, biotinylated 9C5, streptavidin-PE; free peptide 5.0 mg/ml, 15 min; FIG. 2
Procedure: For flow cytometry experiments, SUP-T1 cells were used. SUP-T1 is a T-lymphoma-derived tumor cell line known to express typical T cell surface markers. The SUP-T1 cells were prepared for flow cytometry and sequentially sensitized with the CD8 antibody-PR34+ peptide (CD8-PR34+) conjugate, biotinylated 9C5, and phycoerythrin-labeled (PE-labeled) streptavidin. The SUP-T1 cells were incubated with either streptavidin-PE; sequentially with the CD8-PR34+ conjugate, biotinylated 9C5, followed by streptavidin-PE; or sequentially with CD8-PR34+ conjugate, biotinylated 9C5, streptavidin-PE, followed by a 15 min incubation with free PR34+™ peptide. The SUP-T1 cells were then analyzed by flow cytometry. All incubations were performed in a mixture of Dulbecco's phosphate buffered saline (GibcoBRL), 0.05% azide, 1.0% human serum albumin (PAH). All incubations were for 15 min at room temperature and each was followed by a wash with 1.0 ml PAH. The stained cells were resuspended in 0.25 ml PAH for flow cytometry. SUP-T1 cells (1×10^6) were stained with 1 μg of either the CD8-9069N or the CD34-biotin. The peptide was used at 5.0 mg/ml.

[3] = system: CD8+ cells; assay: Positive selection of CD8+ cells from a mononuclear cell preparation; format: cell-based, human; details: condition 2: biotinylated CD8 antibody capture; incubation with free PR34+ peptide
Procedure: To test the ability of the CD8-PR34+ conjugate to isolate CD8+ cells from a population, mononuclear cells (MNCs), which contain CD8+ cells, were prepared. Mononuclear cells were collected from human donors. Mononuclear cells were collected from a G-CSF mobilized human donor using a CS-3000™ (Baxter) following the protocol of the manufacturer. The starting population of MNCs was 19.42% CD3+/8+. For each rosetting reaction, a quantity of MNCs containing 2×10^6 CD8+ cells was used. Biotinylated CD8 antibody (MT-415) was biotinylated essentially as described in Example I. The MNCs were incubated under three conditions. In condition 1, MNCs were incubated with streptavidin beads alone. In condition 2, MNCs were incubated with biotinylated CD8 antibody, followed by streptavidin beads. In condition 3, MNCs were incubated with CD8-PR34+ conjugate, followed by biotinylated 9C5 and streptavidin beads. After incubation with streptavidin beads, the free cells were removed, and the cells attached to streptavidin beads were incubated with free PR34+™ peptide. The released cells were counted, and the number of CD8+ cells was evaluated using flow cytometry. The CD8+ cells were quantitated using a combination of CD3 and […]. CD3 is a pan T cell marker, and CD3+ populations can be further subdivided into mutually exclusive CD4+ and CD8 positive populations. […]

[4] = system: CD2+ T cells; assay: Positive selection of CD2+ T cells using CD2-9069N, b-9069 and streptavidin beads; format: cell-based, human; details: release reagent 9069N 2.5 mg; for % T-cells released: 30 min./RT
Description: To test the ability of a PR34+ peptide-conjugate to isolate a different cell type, the PR34+TM peptide was coupled to a CD2 antibody (B-E2; IgG2b isotype; Diaclone; Besancon, France) essentially as described in Example T. The PR34+TM peptide, also designated […], conjugated to the CD2 antibody was designated CD2-[…]. The biotinylated 9C5 antibody, also known as the 9069 antibody, was designated b-9069. Either mobilized or non-mobilized MNC preparations (see Example III) were used, with similar results. Cells were incubated with 1 μg or 5 μg of CD2-[…] conjugate for 15 min at room temperature (see Table 3). The cells were then incubated with 1 μg or 10 μg of biotinylated 9C5 antibody (b-9069) and streptavidin beads. Bound cells were subsequently incubated with either buffer or 2.5 mg of free PR34+TM peptide ([…]). Incubation conditions were essentially as described in Example II. The released cells were then quantitated and the purity determined. Purity and cell counts were assessed using an anti-CD3 antibody and the True Count flow cytometty quantitation method (Becton Dickenson; San Jose Calif.).

[5] = system: CD2 T cells; assay: T cell selection using CD2-PR34 conjugate and capture by direct binding of CD34 antibody to Dynabeads; format: cell-based, human; details: for % Purity / % Yield: release agent PR34+ 2.5 mg
Procedure: The CD2 antibody B-E2 was conjugated to PR34™ peptide essentially as described in Example IV. MNCs were incubated essentially as described in Example IV using CD2-PR34 conjugate. The cells were then incubated with the CD34 antibody 9069 coated on M-450 Dynabeads (Dynal). The CD34 antibody coated beads were prepared by absorbing various amounts of anti-CD34 antibody on the bead surface. The beads were prebound with 0, 1, 5, 20, or 50 μg of antibody per 108 beads. As a control, an aliquot of cells was incubated with streptavidin coated Dynabeads.

[6] = system: Camma cells; assay: Positive selection of Camma cells using Pan-O-5-PR34 conjugate and anti-CD34-coated Dynabeads; format: cell-based; details: PR34 peptide 5 mg/ml, 30 min room temperature; FIG. 5, N=1
Procedure: To prepare antibody-coated beads, Dynabeads (Dynal) were washed with Dulbecco's phosphate buffered saline (D-PBS). Washed beads were coated with 50 μg anti-CD34 monoclonal antibody per 10^8 beads for 24 hours at 4° C. The beads were washed twice with Isolex buffer and incubated with 1% albumin in the Isolex buffer for 24 hours at 4° C.
To synthesize the Pan-O-5-PR34 conjugate, the Pan-O-5 monoclonal antibody was incubated with N-(ε-maleimidocaproyloxy)succinimide ester for 30 min at room temperature to generate an antibody-linker complex. The antibody-linker complex was washed twice with D-PBS using an Amicon spin column (30 KD; Millipore Corp.; Bedford Mass.). The Pan-O-5-antibody-linker complex was incubated with PR34™ peptide for 30 min at room temperature. The Pan-O-5-linker-PR34 antibody complex was washed twice with D-PBS using an Amicon spin column. The concentration of the conjugate was determined by absorbance at 280 nm.
Cells (18×10^6) were incubated with Pan-O-5-linker-PR34 antibody (5 μg/ml) for 15 min. The cell-antibody complex was washed twice with Isolex buffer and incubated with anti-CD34-coated Dynabeads (5 beads per cell) for 30 min at room temperature. The Dynabeads were isolated with a magnet, and unbound cells were removed. The bead-cell fraction was incubated with PR34™ peptide (5 mg/ml) for 30 min at room temperature. […]

[7] = system: anti-CD2 antibody B-E2; assay: FACS release assay of cells bound to anti-CD2 antibody using peptides; format: binding; details: 1 mM or 5 mM peptide, 30 min room temperature, in some cases 1 mM DTT; FIG. 4
Procedure: Several of the peptides were further tested for release activity. Briefly, the FACS release assay was performed by incubating 1×10^6 MNC with 100 μl of 0.02 μg/ml of CD2 antibody for 15 min at room temperature. Cells were washed once with 2 ml of lysing reagent and twice with 2 ml of PAH solution. 0.5 ml of a 1 mM or 5 mM peptide stock was added to the cell pellet and incubated at room temperature for 30 min. Cells were washed twice in 2 ml of PAH. 1 μl of GAM-PE was added to each sample and incubated for 10 min at room temperature. Cells were washed twice in 2 ml of PAH. The final cell pellet was resuspended in 0.25 ml of 0.5% paraformaldehyde. The samples were analyzed by flow cytometry.
In the release assay, either 1 mM or 5 mM peptide (1 mM peptide except where indicated to be 5 mM in FIG. 4). In some cases, the release assay was performed in the presence of 1 mM dithiothreitol (DTT). The assay was performed with two different batches of donor cells (second batch of donor cells designated with “*” in FIG. 4).

[8] = target: biotinylated 9C5 antibody (anti-human CD34 monoclonal antibody); assay: cell-based or functional assay
[9] = SA: streptavidin coated Dynabead control

Molecule: ACKQF
- competition for binding of the anti-CD2 antibody B-E2 to cells [1]: compete for binding

Molecule: ACKQFACKQF
- competition for binding of the anti-CD2 antibody B-E2 to cells [1]: compete for binding

Molecule: ACKQFDFC
- competition for binding of the anti-CD2 antibody B-E2 to cells [1]: compete for binding

Molecule: ACKQFDFCNDH
- competition for binding of the anti-CD2 antibody B-E2 to cells [1]: compete for binding

Molecule: ACKQFDFCNDHWSK
- competition for binding of the anti-CD2 antibody B-E2 to cells [1]: compete for binding

Molecule: ACKQFDFCNDHWSKSQH
- competition for binding of the anti-CD2 antibody B-E2 to cells [1]: compete for binding

Molecule: ACKQFN
- competition for binding of the anti-CD2 antibody B-E2 to cells [1]: compete for binding

Molecule: ACKQFNNDV
- competition for binding of the anti-CD2 antibody B-E2 to cells [1]: compete for binding

Molecule: ACKQFNNDVTCN
- competition for binding of the anti-CD2 antibody B-E2 to cells [1]: compete for binding

Molecule: ACKQFNNDVTCNAAEGDD
- competition for binding of the anti-CD2 antibody B-E2 to cells [1]: compete for binding

Molecule: ACKQFNNDVTCNKRH
- competition for binding of the anti-CD2 antibody B-E2 to cells [1]: compete for binding

Molecule: ACKQLHSVSGCR
- competition for binding of the anti-CD2 antibody B-E2 to cells [1]: compete for binding

Molecule: ACKRPP
- competition for binding of the anti-CD2 antibody B-E2 to cells [1]: compete for binding

Molecule: ACKRPPVSLTCH
- competition for binding of the anti-CD2 antibody B-E2 to cells [1]: compete for binding

Molecule: ASKQF
- competition for binding of the anti-CD2 antibody B-E2 to cells [1]: compete for binding

Molecule: Ac-QQGWFPKD [PR34+™ peptide, peptide capable of displacing the anti-CD34 antibody 9C5 (9069); used free as release agent]
- fluorescent signal after addition of free peptide [2]: eliminated the fluorescent signal
- % Yield [3]: less than 3%
- % Purity (CD3+) ([4]; CD2-9069N 1 μg, b-9069 1 μg): 89%
- % T-cells released ([4]; CD2-9069N 1 μg, b-9069 1 μg): 71%
- % Purity (CD3+) ([4]; CD2-9069N 1 μg, b-9069 10 μg): 87% and 74%
- % T-cells released ([4]; CD2-9069N 1 μg, b-9069 10 μg): 87% and 65%
- % Purity (CD3+) ([4]; CD2-9069N 5 μg, b-9069 1 μg): 88% and 81%
- % T-cells released ([4]; CD2-9069N 5 μg, b-9069 1 μg): 61% and 56%
- % Purity (CD3+) ([4]; CD2-9069N 5 μg, b-9069 10 μg): 70%
- % T-cells released ([4]; CD2-9069N 5 μg, b-9069 10 μg): 50%
- % Purity ([5]; 1 μg antibody per 10^8 beads): 92.4%
- % Yield ([5]; 1 μg antibody per 10^8 beads): 55.9%
- % Purity ([5]; 5 μg antibody per 10^8 beads): 91.3%
- % Yield ([5]; 5 μg antibody per 10^8 beads): 68.9%
- % Purity ([5]; 20 μg antibody per 10^8 beads): 91.8%
- % Yield ([5]; 20 μg antibody per 10^8 beads): 47.4%
- % Purity ([5]; 50 μg antibody per 10^8 beads): 91.4%
- % Yield ([5]; 50 μg antibody per 10^8 beads): 57.5%
- % Purity [5, 9]: 94.5%
- % Yield [5, 9]: 81.5%
- purity of the cells released by free peptide ([5]; summary, antibody-coated beads): greater than 90%
- yield of CD2 cells ([5]; summary, antibody-coated beads incubated with free PR34+ peptide): ≥ 50%
- cells released [6]: Greater than 75%

Molecule: KCHPNMSLKECH
- competition for binding of the anti-CD2 antibody B-E2 to cells [1]: compete for binding

Molecule: RCRRPATTPACR
- competition for binding of the anti-CD2 antibody B-E2 to cells [1]: compete for binding
- release activity (release of T cells bound to anti-CD2 antibody) [7]: highest release activity

Molecule: RCRRPATTPACRACKQF
- competition for binding of the anti-CD2 antibody B-E2 to cells [1]: compete for binding

- % SUP-T1 Yield after release with free peptide (tube 2) [8]: 43%
- % SUP-T1 Yield after release with free peptide (tube 3) [8]: 31%
- % T-cells released by 9069N 2.5 mg (CD2-9069N 1 µg, b-9069 1 µg) [8]: 71%
- % T-cells released by 9069N 2.5 mg (CD2-9069N 1 µg, b-9069 10 µg) [8]: 87% and 65%
- % T-cells released by 9069N 2.5 mg (CD2-9069N 5 µg, b-9069 1 µg) [8]: 61% and 56%
- % T-cells released by 9069N 2.5 mg (CD2-9069N 5 µg, b-9069 10 µg) [8]: 50%
- % Yield after release with PR34+ 2.5 mg (streptavidin coated Dynabead control) [8]: 81.5%
- % Yield of CD8+ cells after release with free peptide (condition 3) [8]: 16%
B1: free PR34+ peptide Ac-QQGWFPKD (SEQ ID NO:2) (peptide)
peptide: Ac-QQGWFPKD
